Reference: patent US20030064954A1, “Cationic amphiphilic 1,4-dihydropyridine derivatives useful for delivery of nucleotide containing compounds” (priority 2000, published 2003)

Key:
[1] = system: D407 (human retinal pigment epithelial) cells; assay: In vitro transfection of plasmid DNA, β-galactosidase activity per well; format: cell-based; conditions: for transfection efficiency: D 407
CVI-P cells = assay: Cytotoxicity of amphiphile/DNA complexes, percentage of survived cells
plasmid DNA = assay: DNA condensation/complexation, EtBr displacement assay; format: binding
How it was run: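 Plasmid DNA (0.6 μg/well) was mixed with 0.002% EtBr in 20 mM HEPES–150 mM NaCl pH 7.4, then cationic liposomes were added at various +/− charge ratios.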

[2] = system: CV-1P (African monkey green kidney fibroblasts cells); assay: In vitro transfection of plasmid DNA, β-galactosidase activity per well; format: cell-based; conditions: for transfection efficiency: CVI-P
How it was run: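 CV-1P cells (20 000/well) given compound/DNA complexes at various charge ratios, prepared in 50 mM MES–50 mM HEPES–75 mM NaCl pH 7.2, 0.6 μg DNA/well, for 5 h at 37 °C, then 45 h in growth medium. Lysates assayed for β-galactosidase via oNPG hydrolysis at 405 nm against an E. coli enzyme standard; efficiency expressed as percent of Lipofectin.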

D 407 cells = assay: Cytotoxicity of amphiphile/DNA complexes, percentage of survived cells; format: cell-based, human; parameters: concentration or dose not given beside the values
carotid arteries = assay: In vivo gene transfer to collared carotid arteries, X-gal staining; parameters: species or system New Zealand White rabbits; conditions: rabbit carotid artery
Protocol: For in vivo studies derivative/plasmid DNA complexes were prepared by the above mentioned method. After gentle swirling the mixtures were allowed to stand in room temperatures for 30 min. prior to use. The complexes were made in phosphate buffer saline and those having +/−charge ratios of 2-8 were used.
Five New Zealand White male rabbits of 2.5-3.5 kg were used. Fentanyl-fluanisone (0,3 mL/kg, s.c., Janssen Pharmaceutica, Beerse, Belgium) and midazolam (1.5 mg/kg, i.m., Roche, Basel, Switzerland) were used for anesthesia. Carotid arteries were exposed using midline neck incision. Arteries were carefully separated from the surrounding tissue and 3 cm silastic collar (MediGene Oy, Kuopio, Finland) was positioned around the artery. Rabbits were re-anesthetized for gene transfer, which was performed 5 days after the installation of the collars. The collars were opened and filled with 600 μL of the gene transfer solution. Rabbits were sacrificed three days after the gene transfer and arteries were removed for histological analyses.
Collared arteries were divided into three equal parts: the proximal third was immersion-fixed in 4% paraformaldehyde/15% sucrose (pH 7.4) for 4 h, rinsed in 15% sucrose (pH 7.4) overnight and embedded in paraffin. The medial third was stored at −70° C. for later analyses. The distal third was immersion-fixed in 4% paraformaldehyde/phosphate buffered saline (pH 7.4) for 30 min, rinsed 24 h in phosphate buffer (pH 7.2) and embedded in OCT compound.
Ten randomly selected frozen sections (10 μm) from each rabbit were stained with X-gal for 18 h to identify β-galactosidase positive cells. Mayers Carmalum-stain was, used as counter stain.

[3] = Preparation of liposomes (vesicle solution); format: physicochemical
Protocol: Cationic liposomes comprising derivatives I-XXI were prepared by dissolving the crystalline derivative in chloroform. The solvent was evaporated under a stream of nitrogen for 45 min in vacuum. The resulting thin films were resuspended in 4 ml deionized water, vortexed and sonicated in bath type sonicator 30′ until the solution became clear. (The final concentration of liposomes was 2.5 mM.) In order to prepare the liposomes of derivatives I-XXI (Table 2) high temperatures (40-65° C.) were used. Derivatives XXII-XXVII (Table 2) were dissolved in deionized water, vortexed and sonicated 5-7 min in a bath sonicator.

[4] = amphiphile/DNA +/− charge ratio 0.5
[5] = amphiphile/DNA +/− charge ratio 1
[6] = amphiphile/DNA +/− charge ratio 2
[7] = amphiphile/DNA +/− charge ratio 4
[8] = amphiphile/DNA +/− charge ratio 8

Compound	transfection efficiency [1, 5]	transfection efficiency [1, 6]	transfection efficiency [1, 7]	transfection efficiency [1, 8]	cytotoxicity as a percentage of survived cells (CVI-P cells; [4])	cytotoxicity as a percentage of survived cells (CVI-P cells; [5])	cytotoxicity as a percentage of survived cells (CVI-P cells; [6])	cytotoxicity as a percentage of survived cells (CVI-P cells; [7])	cytotoxicity as a percentage of survived cells (CVI-P cells; [8])	complexation, percentage of the maximum fluorescence signal when EtBr bound to DNA in the absence of an amphiphile (plasmid DNA; [4])	complexation, percentage of the maximum fluorescence signal when EtBr bound to DNA in the absence of an amphiphile (plasmid DNA; [5])	complexation, percentage of the maximum fluorescence signal when EtBr bound to DNA in the absence of an amphiphile (plasmid DNA; [6])	complexation, percentage of the maximum fluorescence signal when EtBr bound to DNA in the absence of an amphiphile (plasmid DNA; [7])	complexation, percentage of the maximum fluorescence signal when EtBr bound to DNA in the absence of an amphiphile (plasmid DNA; [8])	transfection efficiency [2, 4]	transfection efficiency [2, 5]	transfection efficiency [2, 6]	transfection efficiency [2, 7]	transfection efficiency [2, 8]	cytotoxicity as a percentage of survived cells (D 407 cells; [4])	other results
CCCCCCCCCCCCCCOC(=O)C1=C(C)NC(C)=C(C(=O)OCCCCCCCCCCCCCC)C1c1ccc[n+](C)c1.I.[I-] [VI, 1′,4′-Dihydro-1,2′,6′-trimethyl-3′,5′-bis(tetradecyloxycarbonyl)-3,4′-bipyridinium iodide]	16,56 β-galactosidase units per well	35,6 β-galactosidase units per well	1,21 β-galactosidase units per well	1,08 β-galactosidase units per well	94,05%	89,46%	90,38%	45,6%	7,52%	93,25%	84,75%	78,9%	74,85%	71,05%	0,81 β-galactosidase units per well	0,82 β-galactosidase units per well	4,82 β-galactosidase units per well	2,16 β-galactosidase units per well	1,27 β-galactosidase units per well	98,6%	transfection efficiency [1, 4]: 0,53 β-galactosidase units per well; melting point: 114 to 115 °C; cytotoxicity as a percentage of survived cells (D 407 cells; [5]): 94,43%; cytotoxicity as a percentage of survived cells (D 407 cells; [6]): 79,12%; cytotoxicity as a percentage of survived cells (D 407 cells; [7]): 12,13%; cytotoxicity as a percentage of survived cells (D 407 cells; [8]): 5,11%
CCCCCCCCCCCCOC(=O)C1=C(C[n+]2ccccc2)NC(C[n+]2ccccc2)=C(C(=O)OCCCCCCCCCCCC)C1c1ccccc1.[Br-].[Br-] [XXIII, 1,1′-{[3,5-Bis(dodecyloxycarbonyl)-1,4-dihydro-4-phenylpyridine-2,6-diyl]dimethylene}bispyridinium dibromide]	0,27 β-galactosidase units per well	0,6 β-galactosidase units per well	35,82 β-galactosidase units per well	4,43 β-galactosidase units per well	99,71%	94,54%	93,48%	89,35%	42,72%	78,22%	59,03%	48,3%	44,14%	42,48%	0,44 β-galactosidase units per well	0,42 β-galactosidase units per well	65,5 β-galactosidase units per well	122,8 β-galactosidase units per well	22,33 β-galactosidase units per well	93,67%	transfection efficiency [1, 4]: 0,27 β-galactosidase units per well; level of transfection compared with Lipofectin ([1]; D407 cells, FIG. 4): at least twenty times higher; β-galactosidase activity in arteries, result in words (carotid arteries; X-gal staining): detected at all study groups; gene transfer efficiency (carotid arteries; derivative/plasmid complexes at three charge ratios, three days after gene transfer): 0.05-1.5%; most effective charge ratio (carotid arteries; three charge ratios tested): +4; level of transfection compared with DOTAP ([2]; CV1-P cells, FIG. 4): ten times higher; level of transfection compared with Lipofectin ([2]; CV1-P cells, FIG. 4): at least twenty times higher; highest level of beta-galactosidase expression ([2]; confluent CV1-P cells, without serum, without DOPE): 208 mU; cytotoxicity as a percentage of survived cells (D 407 cells; [5]): 87,69%; cytotoxicity as a percentage of survived cells (D 407 cells; [6]): 79,68%; cytotoxicity as a percentage of survived cells (D 407 cells; [7]): 70,23%; cytotoxicity as a percentage of survived cells (D 407 cells; [8]): 11,98%
CCCCCCCCCCCCCCCCOC(=O)C1=C(C)NC(C)=C(C(=O)OCCCCCCCCCCCCCCCC)C1c1ccc[n+](C)c1.I.[I-] [VII, 3′,5′-Bis(hexadecyloxycarbonyl)-1′,4′-dihydro-1,2′,6′-trimethyl-3,4′-bipyridinium iodide]	0,82 β-galactosidase units per well	1,37 β-galactosidase units per well	0,98 β-galactosidase units per well	0,63 β-galactosidase units per well	102,34%	97,03%	103,62%	99,84%	88,71%	90,6%	86,95%	83,11%	79,25%	77,6%	0,73 β-galactosidase units per well	0,39 β-galactosidase units per well	2,2 β-galactosidase units per well	0,81 β-galactosidase units per well	0,61 β-galactosidase units per well	95,82%	melting point: 112 to 113 °C (dec.); cytotoxicity as a percentage of survived cells (D 407 cells; [5]): 84,83%; cytotoxicity as a percentage of survived cells (D 407 cells; [6]): 62,61%; cytotoxicity as a percentage of survived cells (D 407 cells; [7]): 55,53%; cytotoxicity as a percentage of survived cells (D 407 cells; [8]): 51,38%
3′,5′-Bis(cholesteryloxycarbonyl)-1′,4′-dihydro-1,2′,6′-trimethyl-3,4′-bipyridinium iodide [XII]																					vesicle solution preparation, observation in words (phrases split over cells: 'Fast residue & crystalls'; 'No vesicle solution can be prepared') [3]: No
